Measurements taken from US12239661B2, “Methods and compositions for treating undesired implanted tissue filler” (priority 2019, dated 2025).
Where two headings read alike, the source gives them in different places. Marks after values point to notes of the source that are not given here.

Columns and labels:
[1] = Electron microscopy (SEM) of filler particles isolated from test sites (Example 1)
Description: EM analysis is used, for example, to analyze morphology and the particle size distribution of Calcium Hydroxyapatite (CaHA) particles in tissue integrated particles. […] The biopsy material underwent an enzymatic digestion with protease (Trypsin without EDTA, for […], at 37° C.) after fixation in 10% neutral buffered formalin (NBF). Digested sample was centrifuged, and microscopy samples of the supernatant as well as the pellet were prepared and subjected to EM analysis at room temperature.
Samples were analyzed using a Scanning Electron Microscope (SEM) (Phenom Pure G3, ThermoFisher, with Phenom Pro Suite application system, ImageJ (version 1.51j8) software and OriginPro 2018G (64-bit) SR1 b9.5.1.195 software for analysis and data processing). To evaluate the changes in CaHA microparticle characteristics the samples were analyzed with the Scanning Electron Microscopy (SEM) and evaluated for morphology as well as for the size and shape of the material. Statistical analysis of particle size distribution (PSD) would show changes of the material.
SEM images were taken from three fractions per sample to determine the particle- and volume-weighted size distributions. Up to 400 SEM images per fraction were taken at a magnification of ×500 and further processed by automated image analyzing software ImageJ (version 1.51j8). Image processing took place for every fraction image to determine selected parameters. e.g., Feret diameter and aspect ratio (D-ratio).

[2] = day 7 after injection; 1.5 mL into 0.5 mL filler site; vs untreated filler
Description: The dermal filler (Radiesse® calcium hydroxylapatite labelled as Radiesse® Volume Advantage 1.5 cc, syringes) was injected in the superficial part of the subcutaneous compartment in the abdominal skin of three pigs (female Swine (Sus scrofa domesticus) Landrace-Large White cross from SCEA Poraubennes, France, having body weight between 56 to 58 kg at injection.) Ten sites per animal were injected, with approximately 0.5 mL of the dermal filler using graduated syringes.
No treatment was injected in the remaining 10 sites (dermal filler alone). Three to four sites were employed for each treatment in each animal.
Seven days following injection, animals were euthanized. The local tissue effects and degradation of the dermal filler were evaluated macroscopically, 3-D camera, histopathologically, histomorphometrically, and by micro-CT.
The measured data were filtered using a Gaussian filter with finite filter support and filter width. The images were then segmented to separate the implant from the tissue background and the global volume of material was measured.
The signal detected in a CT scan is directly correlated with the density of the material in the sample scanned. […]
Dermal filler degradation was evaluated for each time-period in comparison to the TO site. […]

[3] = Semi-quantitative histopathologic analysis of injection sites (Example 1)
Description: After complete fixation in 10% NBF and micro-CT analysis, the 30 test sites and the TO site, were cut into five blocks. The blocks were decalcified for 48 hours with formic acid and then dehydrated in alcohol solutions of increasing concentration, cleared in xylene and embedded in paraffin. […] Finally, the blocks were placed in HCl for 15 min and the blocks could then be cut to obtain slides for analysis.
The section was stained with safranin-hematoxylin-cosin (SHE). The same procedure was used for the preparation of the TO site used for structural characterization and evaluation of the degradation.
Qualitative and semi-quantitative histopathologic evaluation of the local tissue effects and the inflammatory response at injection sites was conducted according using standard methods.
Evaluation of local tissue effects was based on the qualitative and semi-quantitative histopathologic evaluation: mean score comparison of the semi-quantitative parameters and comparison of the qualitative histopathologic findings.

[4] = Description: A total of 10 CT-scans were performed at 30 min, 1 h 15 min, 1 h 30 min, 1 h 45 min, 2 h, 3 h, 4 h, 8 h, 1 day (24 h) and 7 days after injections of the dermal filler.
The X-ray computed tomography (CT) acquisitions were performed with the Computed Tomography Scanner BrightSpeed 16 (General Electric). In order to measure the volume, the mean density and visualize the 3D (Three-dimensional) shape of the dermal fillers SC injected, in vivo CT-scans were performed 1 h 15 (±5 min), 1 h 30 (±10 min), 1 h 45 (±10 min), 2 h (±10 min), 3 h (±15 min), 4 h (±15 min), 8 h (±30 min), 24 h (Day 1+1 h) and 7 days after the test item injections.
For each CT-scan, the animal was positioned in dorsal recumbency (ventral images) and acquisitions were centered on the injection sites. The parameters of the CT-scan are described in Table 4.
The CT acquisitions were analyzed with Avizo version 9.2.0 software. […] To achieve this goal, the evolution of the following parameters was observed over time: • the volume of each nodule, • the mean density of each nodule, and • the 3D shape of each nodule by visualization on the 3D model of each nodule at each time point. Segmentation
An image segmentation was performed on each CT acquisition using standard reconstruction. First, a manual pre-segmentation was performed around each nodule in order to roughly isolate the voxels corresponding to dermal filler. An interpolation procedure was performed to obtain a contour for each slice and define a Region of Interest (ROI). Second, an automatic segmentation was applied on the ROI previously defined using a global grey level thresholding procedure. The relevant threshold allowing the isolation of the dermal filler products was defined on the basis of the Hounsfield Unit (HU) histogram, following the Otsu method to accurately define the ROI. […] Then, a 3D model of these selected voxels was obtained allowing calculation of the total volume (in mm^3) of each nodule of non-degraded dermal filler.
The volume (in mm^3) of the ROI corresponding to each nodule of dermal filler and the mean density (in HU) of each nodule were calculated at each time point.
In order to assess the evolution over time of the elimination of SC-injected dermal filler, the mean volume±standard deviation (SD) and the average of mean density±SD were calculated for each dermal filler injection of the right and left flank separately at each different time points. The evolution of the mean volumes, the mean volume variations and the average of the mean densities of each dermal filler were calculated.

[5] = In vivo CT of filler nodule volume, density and 3D shape after test solutions 0-8 (Example 3)
Description: One hour after filler injections (T=1 h), 1.5 mL of selected solutions (Table 5, solutions 0-8, test items, solution 0 is normal saline and not hyperosmotic) were injected each into 9 dermal filler nodules in the right flank (ventral area).
(§1) A total of 7 CT-scans were performed at 1 h 15, 2 h, 4 h, 1 day (24 h), 3, 7 and 14 days after injection of the dermal filler. The clinical state of each animal is assessed once a week by body weight measurement and clinical observations.
The 10 SC injections of dermal filler on Day 0 were performed in the ventral area, (five nodules on each flank of the ventral area) for each pig. For each SC nodule, a theoretical volume of 500 μl was administered. One hour (±5 min) after injection of dermal filler, SC injection of the different solutions (prepared the day before) were performed into nine (9) nodules of dermal. For each SC nodule, a theoretical volume of 1.5 mL of test solution was administered.
The X-ray computed tomography acquisitions were performed with the Computed Tomography Scanner BrightSpeed 16 (General Electric). In order to measure the volume and the mean density and to visualize the 3D shape of the dermal filler (Radiesse® filler with or without test solution) injected, in vivo CT-scans were performed on Day 0: 1 h 15 (±10 min), 2 h (±15 min) and 4 h (±20 min), on Day 1 (24 h+1 h), Day 3, Day 7 and Day 14.
During CT acquisition on Day 0, the pigs received an IM injection of anesthesia. The animals were maintained under anesthesia until the CT acquisition at T=2 h (2 h after dermal filler injection session). Between these CT acquisitions, the animals were under surveillance in the recovery room on a heating mat with fluidotherapy. At the end of the CT acquisition at T=2 h, the pigs received a tattoo around each injected site. During the CT acquisitions at T=4 h and on Days 1, 3, 7 and 14, pigs received an IM injection of anesthesia. For the CT-scans, animals were positioned in dorsal recumbency and acquisitions were centered on the injection sites. The parameters of the CT-scan are described in Table 5.
The CT acquisition was analyzed with the software Avizo version 9.2.0. The objective of this analysis was to assess the degradation over time of the dermal filler injected by SC route after injection of different test solutions.
An image segmentation processing was performed on each CT acquisition. First, a manual pre-segmentation was performed around each nodule in order to roughly isolate the voxels corresponding to dermal filler product, which defined a Region of Interest (ROI). Second, an automatic segmentation was applied on the previously defined ROI using a global grey level thresholding procedure.
On day 0, a farm pig received ten (10) SC injections of Radiesse® dermal filler 0.5 mL (ventral area) (10 nodules in total). One hour after filler injections (T=1 h), 1.5 mL of one of eight test hyperosmotic solutions (1-8 solutions, Table 5) was injected at an injection site. One injection site was untreated and one injection site was treated with normal saline (0.9% wt/v NaCl).

[6] = SC injection of 1.5 mL into filler nodule
Description: as §1
On day 14, one pig received one SC injection of Radiesse® filler in order to represented a Day 0 injection which is considered a positive control and then, all pigs were euthanized and each nodule with a part of the skin, along with negative control skin (skin samples without injection), were sampled in order to perform histological analysis of, for example, the inflammation, the necrosis and the dermal filler presence at the injection site.

[7] = particle size distribution by EM, day 7

O=S([O-])([O-])=S.[Na+].[Na+] [STS, sodium thiosulfate]
particle degradation (change in particle size or surfaces) by EM ([1]; day 7): no indication of particle degradation
Mean diameter ([1]; filler particles by EM, seven days after filler injection): 29.2 μm
25-45 μm [1, 7]: 93.1 wt %
<25 μm [1, 7]: 1.7 wt %
>45 μm [1, 7]: 5.2 wt %
D-ratio ([1]; shape index, 1=round, EM, day 7): 0.8
effect on dermal filler volume as measured by micro-CT [2]: ≤ 10%
appearance of filler in histology slices ([3]; SHE stain, vs Saline treatment or untreated filler): more dispersed (diluted) appearance of filler
AM Degradation ([3]; mean score, day 7): 1.8
Cell or Tissue Degeneration ([3]; mean score, day 7): 0.0
Encapsulation ([3]; mean score, day 7): 0.0
Fatty Infiltrate ([3]; mean score, day 7): 0.0
Fibrin ([3]; mean score, day 7): 2.4
Fibroblasts ([3]; mean score, day 7): 2.0
Fibrosis ([3]; mean score, day 7): 0.0
Giant Cells ([3]; mean score, day 7): 1.4
Hemorrhage ([3]; mean score, day 7): 2.1
Lymphocytes ([3]; mean score, day 7): 1.1
Macrophages ([3]; mean score, day 7): 2.0
Necrosis ([3]; mean score, day 7): 1.2
Neovascularization ([3]; mean score, day 7): 1.0
Plasma Cells ([3]; mean score, day 7): 0.0
Polymorphonuclear Cells ([3]; mean score, day 7): 1.1
Tissue Ingrowth ([3]; mean score, day 7): 2.5
Tissue Integration ([3]; mean score, day 7): 2.5
fibrin content, hemorrhage and necrosis by histopathology ([3]; seven days): increased fibrin content, hemorrhage and necrosis
inflammation by histopathology ([3]; seven days): decreased inflammation (macrophages, giant cells)
amount of filler by histopathology ([3]; seven days, vs Saline treatment and untreated injections): decreased amount of filler
Radiesse+STS high volume (HU 250-infinity) vs untreated filler by CT ([4]; 90 minutes after injection): very modest temporary increase
Radiesse+STS high density vs untreated filler by CT ([4]; day 7): strong trend for a decrease
filler volume×density/1000 (filler content) in Radiesse+STS high fraction ([4]; day 7): significant decrease of filler
highest HU values of voxel frequency trace ([4]; day 7, untreated filler 450-570 HU): 250-400 HU
number of voxels at 750 HU ([4]; day 7, untreated filler c.a. 70): ~40 voxels
Radiesse-STS (low) volume (0 to 250 HU) by CT ([4]; diluted/dispersed fraction over time): increases with the time between 120 and 240 minutes

[Ca+2].[Cl-].[Cl-] [sol 4, Calcium chloride]
nodule visibility / degradation of filler at end of study ([5]; Day 14, CT 3D models): largely degraded/dispersed the Radiesse® dermal filler
Change in Volume as percent of Injected Volume, Day 14/15 ([5]; Example 3 (Day 14), mean): 169.73* percent
Change in Volume as percent of Injected Volume, Day 0 + 2 h ([5]; Example 3, mean): 162.46%
Change in Volume as percent of Injected Volume, Day 0 + 4 h ([5]; Example 3, mean): 157.72%
Change in Volume as percent of Injected Volume, Day 1 ([5]; Example 3, mean): 145.42* percent
Change in Volume as percent of Injected Volume, Day 3 ([5]; Example 3, mean): 174.24* percent
Change in Volume as percent of Injected Volume, Day 7 ([5]; Example 3, mean): 175.91* percent
Change in Volume as percent of Injected Volume, Day 0 + 1 h 15 ([5]; Example 3, mean, 1.5 mL solution into 500 μl nodule): 170.60* percent
local tolerance at injection site [6]: large wound on pigs
local tolerance at injection site ([6]; listed as CaCl2): strong local irritating effect
local tolerance at injection site ([6]; listed as ClCl2): severe skin necrosis
